The melting point is the temperature, or range, at which the solid turns liquid. For `CCNC(=S)Nc1ccc2ncc(Nc3ccc(C)c(OC)c3)nc2n1` [Compound 162, 1-Ethyl-3-[3-(3-methoxy-4-methyl-phenylamino)-pyrido[2,3-b]pyrazin-6-yl]-thiourea], the melting point came to 288 °C.

Turning to `CCNC(=O)Nc1ccc2ncc(-c3ccn[nH]3)nc2n1` [Compound 52, 1-Ethyl-3-[3-(2H-pyrazol-3-yl)-pyrido[2,3-b]pyrazin-6-yl]-urea], the melting point was 218 to 220 °C. Turning to `COc1cc(-c2ccc3ncc(NC(=O)Nc4ccc(-n5cccc5)cc4)nc3n2)ccc1O` [Compound 623, 1-[6-(4-Hydroxy-3-methoxy-phenyl)-pyrido[2,3-b]pyrazin-3-yl]-3-(4-pyrrol-1-yl-phenyl)-urea], the melting point lay within 263 to 265 °C.

In turn, `CCNC(=S)Nc1ccc2ncc(Nc3ccccc3OC)nc2n1` [Compound 332, 1-Ethyl-3-[3-(2-methoxy-phenylamino)-pyrido[2,3-b]pyrazin-6-yl]-thiourea] showed a melting point of 232 °C. As for `COc1cc(Nc2cnc3ccc(NC(=S)NCCN4CCCCC4)nc3n2)cc(OC)c1OC` [Compound 700, 1-(2-Piperidin-1-yl-ethyl)-3-[3-(3,4,5-trimethoxy-phenylamino)-pyrido[2,3-b]pyrazin-6-yl]-thiourea], the figure is 206 °C. In the case of `CCNC(=O)Nc1ccc2ncc(-c3ccc(C(=O)OC)c(F)c3)nc2n1` [Compound 143, 4-[6-(3-Ethyl-ureido)-pyrido[2,3-b]pyrazin-3-yl]-2-fluoro-benzoic acid methyl ester], the melting point lay within 250 to 252 °C. With `CCNC(=O)Nc1ccc2ncc(Nc3cccc(C(C)=O)c3)nc2n1` [Compound 170, 1-[3-(3-Acetyl-phenylamino)-pyrido[2,3-b]pyrazin-6-yl]-3-ethyl-urea] the figure was 243 °C.

On to `CCNC(=O)Nc1ccc2ncc(Nc3ccc(Cl)c(C(=O)O)c3)nc2n1` [Compound 434, 2-Chloro-5-[6-(3-ethyl-ureido)-pyrido[2,3-b]pyrazin-3-ylamino]-benzoic acid], for which the melting point lay within 324 to 329 °C. Compound `COc1cc(-c2ccc3ncc(NC(=O)Nc4ccc(F)cc4)nc3n2)ccc1O` [Compound 600, 1-(4-Fluoro-phenyl)-3-[6-(4-hydroxy-3-methoxy-phenyl)-pyrido[2,3-b]pyrazin-3-yl]-urea] returned a melting point of 244 to 246 °C. As for `COc1ccc(-c2ccc3ncc(NC(=O)NC4CCCCC4)nc3n2)cc1OC` [Compound 571, 1-Cyclohexyl-3-[6-(3,4-dimethoxy-phenyl)-pyrido[2,3-b]pyrazin-3-yl]-urea], the figure is 262 to 264 °C; as for `CCNC(=O)Nc1ccc2ncc(-c3cc(C)cc(Br)c3OC)nc2n1` [Compound 110, 1-[3-(3-Bromo-2-methoxy-5-methyl-phenyl)-pyrido[2,3-b]pyrazin-6-yl]-3-ethyl-urea], 228 to 230 °C; as for `COc1cc(-c2ccc3ncc(NC(=O)NC4CCCCCCC4)nc3n2)ccc1O` [Compound 604, 1-Cyclooctyl-3-[6-(4-hydroxy-3-methoxy-phenyl)-pyrido[2,3-b]pyrazin-3-yl]-urea], 232 to 234 °C. As for `COc1cc(-c2ccc3ncc(NC(=O)NC(C)C)nc3n2)ccc1O` [Compound 19, 1-[6-(4-Hydroxy-3-methoxy-phenyl)-pyrido[2,3-b]pyrazin-3-yl]-3-isopropyl-urea], the figure is 212 to 214 °C; as for `CCNC(=S)Nc1ccc2ncc(Nc3ccc(F)c(F)c3)nc2n1` [Compound 433, 1-[3-(3,4-Difluoro-phenylamino)-pyrido[2,3-b]pyrazin-6-yl]-3-ethyl-thiourea], 265 °C; as for `COCCNC(=S)Nc1ccc2ncc(Nc3cc(OC)c(OC)c(OC)c3)nc2n1` [Compound 705, 1-(2-Methoxy-ethyl)-3-[3-(3,4,5-trimethoxy-phenylamino)-pyrido[2,3-b]pyrazin-6-yl]-thiourea], 243 to 245 °C. With `CCNC(=S)Nc1ccc2ncc(Nc3cc(Cl)c(O)c(Cl)c3)nc2n1` [Compound 166, 1-[3-(3,5-Dichloro-4-hydroxy-phenylamino)-pyrido[2,3-b]pyrazin-6-yl]-3-ethyl-thiourea] the figure was 278 °C; with `COc1cc(-c2ccc3ncc(NC(=S)NC4CCCC4)nc3n2)ccc1O` [Compound 519, 1-Cyclopentyl-3-[6-(4-hydroxy-3-methoxy-phenyl)-pyrido[2,3-b]pyrazin-3-yl]-thiourea], 233 to 235 °C; with `CCNC(=O)Nc1cnc2ccc(Nc3ccc(C)c(OC)c3)nc2n1` [Compound 209, 1-Ethyl-3-[6-(3-methoxy-4-methyl-phenylamino)-pyrido[2,3-b]pyrazin-3-yl]-urea], 255 °C. The compound `CCNC(=O)Nc1cnc2ccc(-c3cccc(OC(C)C)c3)nc2n1` [Compound 177, 1-Ethyl-3-[6-(3-isopropoxy-phenyl)-pyrido[2,3-b]pyrazin-3-yl]-urea] yielded a melting point of 234 to 237 °C. With `COc1ccc(-c2ccc3ncc(NC(=O)Nc4ccc(C)cc4)nc3n2)cc1OC` [Compound 578, 1-[6-(3,4-Dimethoxy-phenyl)-pyrido[2,3-b]pyrazin-3-yl]-3-p-tolyl-urea] the figure was 263 to 266 °C; with `COc1cc(-c2ccc3ncc(NC(=O)Nc4ccc(N5C(=O)C=CC5=O)cc4)nc3n2)ccc1O` [Compound 622, 1-[4-(2,5-Dioxo-2,5-dihydro-pyrrol-1-yl)-phenyl]-3-[6-(4-hydroxy-3-methoxy-phenyl)-pyrido[2,3-b]pyrazin-3-yl]-urea], 290 to 293 °C.

The compound `O=C(Nc1cnc2ccc(-c3cc(Cl)c(O)c(Cl)c3)nc2n1)Nc1cccs1` [Compound 560, 1-[6-(3,5-Dichloro-4-hydroxy-phenyl)-pyrido[2,3-b]pyrazin-3-yl]-3-thiophen-2-yl-urea] yielded a melting point of 253 to 255 °C.

`CCNC(=O)Nc1cnc2ccc(-c3ccc(O)cc3)nc2n1` [Compound 182, 1-Ethyl-3-[6-(4-hydroxy-phenyl)-pyrido[2,3-b]pyrazin-3-yl]-urea] yielded a melting point of 277 to 279 °C.

As for `CCNC(=O)Nc1ccc2ncc(-c3ccc(NC(=O)OCCOC)c(OC)c3)nc2n1` [Compound 40, {4-[6-(3-Ethyl-ureido)-pyrido[2,3-b]pyrazin-3-yl]-2-methoxy-phenyl}-carbamic acid 2-methoxy-ethyl ester], the melting point is over 240 °C. `CCNC(=O)Nc1ccc2ncc(-c3ccsc3)nc2n1` [Compound 141, 1-Ethyl-3-(3-thiophen-3-yl-pyrido[2,3-b]pyrazin-6-yl)-urea] yielded a melting point of 250 °C. With `CCNC(=O)Nc1ccc2ncc(Nc3ccc(C(=O)OC)c(OC)c3)nc2n1` [Compound 87, 4-[6-(3-Ethyl-ureido)-pyrido[2,3-b]pyrazin-3-ylamino]-2-methoxy-benzoic acid methyl ester], the melting point lay within 256 to 259 °C.

For the compound `COc1ccc(-c2ccc3ncc(NC(=O)Nc4c(C)noc4C)nc3n2)cc1OC` [Compound 573, 1-[6-(3,4-Dimethoxy-phenyl)-pyrido[2,3-b]pyrazin-3-yl]-3-(3,5-dimethyl-isoxazol-4-yl)-urea], the melting point was in the range of 265 to 267 °C. As for `CCNC(=O)Nc1ccc2ncc(-c3cccc(OCC)c3F)nc2n1` [Compound 146, 1-[3-(3-Ethoxy-2-fluoro-phenyl)-pyrido[2,3-b]pyrazin-6-yl]-3-ethyl-urea], the figure is 202 to 204 °C; as for `CCNC(=O)Nc1ccc2ncc(-c3cccc(N(C)C)c3)nc2n1` [Compound 144, 1-[3-(3-Dimethylamino-phenyl)-pyrido[2,3-b]pyrazin-6-yl]-3-ethyl-urea], 240 to 244 °C.

On to `CCNC(=O)Nc1ccc2ncc(-c3ccc(OS(C)(=O)=O)c(OC)c3)nc2n1` [Compound 43, Methanesulfonic acid 4-[6-(3-ethyl-ureido)-pyrido[2,3-b]pyrazin-3-yl]-2-methoxy-phenyl ester], for which the melting point lay in the range of 246 to 249 °C. `CCNC(=O)Nc1ccc2ncc(Nc3cccc(N(C)C)c3)nc2n1` [Compound 374, 1-[3-(3-Dimethylamino-phenylamino)-pyrido[2,3-b]pyrazin-6-yl]-3-ethyl-urea] had a melting point of 215 °C.

The compound `CCNC(=O)Nc1ccc2ncc(Nc3ccc(O)c(C)c3)nc2n1` [Compound 86, 1-Ethyl-3-[3-(4-hydroxy-3-methyl-phenylamino)-pyrido[2,3-b]pyrazin-6-yl]-urea] showed a melting point of 277 to 280 °C. Regarding `COc1cc(-c2ccc3ncc(NC(=O)Nc4c(C)noc4C)nc3n2)ccc1O` [Compound 27, 1-(3,5-Dimethyl-isoxazol-4-yl)-3-[6-(4-hydroxy-3-methoxy-phenyl)-pyrido[2,3-b]pyrazin-3-yl]-urea], the melting point lay in the range of 249 to 252 °C. With `CCNC(=O)Nc1ccc2ncc(-c3ccc(OC)cc3C)nc2n1` [Compound 98, 1-Ethyl-3-[3-(4-methoxy-2-methyl-phenyl)-pyrido[2,3-b]pyrazin-6-yl]-urea] the figure was 223 to 225 °C. As for `Cc1cc(-c2ccc3ncc(NC(=O)Nc4ccccc4)nc3n2)cc(C)c1O` [Compound 595, 1-[6-(4-Hydroxy-3,5-dimethyl-phenyl)-pyrido[2,3-b]pyrazin-3-yl]-3-phenyl-urea], the figure is 271 to 273 °C. As for `CCNC(=O)Nc1ccc2ncc(-c3ccccc3OCC(C)C)nc2n1` [Compound 62, 1-Ethyl-3-[3-(2-isobutoxy-phenyl)-pyrido[2,3-b]pyrazin-6-yl]-urea], the figure is 179 to 181 °C; as for `CCNC(=S)Nc1ccc2ncc(Nc3ccc(C)c(NS(C)(=O)=O)c3)nc2n1` [Compound 165, N-{5-[6-(3-Ethyl-thioureido)-pyrido[2,3-b]pyrazin-3-ylamino]-2-methyl-phenyl}-methanesulfonamide], 268 °C.

In turn, `CCNC(=S)Nc1ccc2ncc(-c3cc(C)c(O)c(C)c3)nc2n1` [Compound 125, 1-Ethyl-3-[3-(4-hydroxy-3,5-dimethyl-phenyl)-pyrido[2,3-b]pyrazin-6-yl]-thiourea] came in with a melting point of 244 °C. For `CCNC(=O)Nc1ccc2ncc(-c3cccc(-c4ccccc4)c3)nc2n1` [Compound 116, 1-(3-Biphenyl-3-yl-pyrido[2,3-b]pyrazin-6-yl)-3-ethyl-urea], the melting point was in the range of 251 to 255 °C.

The record behind these values is patent US8536332B2, “Modulating signal transduction pathways with substituted pyridol [2,3-b] pyrazines” (Aeterna Zentaris GmbH, priority 2007, dated 2013).
